The test system of one data set is HIF1-alpha. The experiment in a line: Measurement of the stabilization of HIF1-alpha in HEKEA cells (beta-galactosidase complementation). The data set is classed as cell-based, human. Conditions: HEKEA_HIF1-alphaPLBL cells, 6 hours under normoxia, luminescence; molar concentration that produces 50% of the maximum response of this same compound. An excerpt: Furthermore, a subject of the invention is also a uniform test for the direct measurement by beta-galactosidase complementation of the amount of HIF1-alpha protein in the nucleus of cells, preferably HEK cells, after treating the said cells with one or more test compounds, which consists in: • (a) inoculating, preferably in 384-well plates, the said cells in a suitable culture medium, preferably 1% foetal calf serum (abbreviated as FCS); • (b) adding the test compound(s) at a suitable concentration in a suitable solvent to the cells previously inoculated in the said culture medium; preferably the test compounds are diluted in 0.1% FCS; • (c) incubating the said cells thus prepared in an indicator at about 37° C., advantageously for about 6 hours; • (d) lysing the cells with a lysis buffer containing a chemiluminescent substrate for beta-galactosidase; • (e) incubating in the absence of light, before reading and measuring the luminescence, which is a function of the beta-galactosidase activity.
The test is a cell test based on the principle of enzyme complementation, the enzyme used herein being beta-galactosidase. HEKEA cells are HEK cells stably expressing, and restricted in their nucleus, mutant beta-galactosidase (omega fragment, also known as EA) (line sold by DiscoverX). This construct makes it possible to obtain beta-galactosidase activity only when the protein comprising the Prolabel complementation fragment has migrated into the nucleus.
The protein of interest comprising the Prolabel fragment is in this case an HIF1-alpha or HIF1-alpha mutated at the two prolines 402 and 564 replaced with alanines, is C-terminal fused via molecular biology (DiscoverX vector sold by Clontech) with the small complementation peptide fragment (Prolabel or ED, about 4 kDa). The vector coding for the chimeric protein HIF1-alpha_Prolabel is then transfected into HEKEA cells to obtain stable clones (HEKEA_HIF1-alphaPLBL).
The amount of C-terminal Prolabel-“labelled” HIF1-alpha protein obtained after treating the cells to hypoxia or compounds that are potentially HIF activators is measured by adding to the cells a lysis buffer containing a chemiluminescent substrate for beta-galactosidase.
The measurement of the beta-galactosidase activity will be proportional to the amount of Prolabel and thus of HIF1-alpha that has migrated into the nucleus of the cells.
1.3.1 Experiment Plan • 1) Inoculation of the cells on D0 • 2) Adherence for 24 hours under normoxia • 3) Preparation and addition of the products (Biomek 2000 and FX) on D+1 • 4) Incubation under normoxia for 6 hours • 5) Reading of the plates (by luminescence)
The cells are inoculated with Multidrop in white, opaque-bottomed 384-well plates (Greiner ref 3704), in 30 μl of culture medium (1% FCS) a 10000 cells/well (cell plate).
The test products are prepared at 3×10^−2 M in 100% DMSO and then diluted to 3×10^−4 M in medium containing 0.1% FCS (10 μl in 990 μl of MEM). They are then deposited by hand into column 12 of a round-bottomed 96-well plate (200 μl of each compound) known as the dilution plate (dl). The complete DL plate of 3×10^−4 M to 10^−9 M is then prepared with Biomek 2000 (programme: range of 10 points in series). For the references and controls, 100 μl of DMEM containing 0.1% FCS are added to column 1, 100 μl of Deferoxamine 10^−3M to column 2, wells A B C D and 100 μl of Deferoxamine 5×10^−3 M to column 2, wells E F G H.
3.3 μL are taken from the DL plate by pipetting with a Biomek FX 96 and placed in horizontal duplicate (columns 1 to 24) in each 384-well cell plate (HEKEA_HIF1-alphaPLBL cell plate).
The cells are then placed for 6 hours in an incubator at 37° C. (ambient O2, 6% CO2).
The kit used is the Prolabel chemiluminescent kit (Ref 93-0001 DiscoverX). […]

Where a name gives a salt, the structure may show the parent alone.

As for `CCN(CC)S(=O)(=O)c1ccc(-n2[nH]c3c(c2=O)CSC3)nc1` [Compound 38, N,N-diethyl-6-(3-oxo-4,6-dihydro-1H-thieno[3,4-c]pyrazol-2(3H)-yl)pyridine-3-sulfonamide], the melting point came out at 192 °C. The same compound registered a concentration for a half-maximal effect (EC50) in the data set on HIF1-alpha of 3.8 µM.

For the compound `COC1CCc2c1[nH]n(-c1ccccn1)c2=O` (stereo not shown) [Compound 11, 6-methoxy-2-(pyridin-2-yl)-1,4,5,6-tetrahydrocyclopenta[c]pyrazol-3(2H)-one], the melting point stood at 76 °C. Still for that read-out and setting: the result for `O=c1c2c([nH]n1-c1ccccn1)CCSC2` [Compound 12, 2-(pyridin-2-yl)-1,4,6,7-tetrahydrothiopyrano[4,3-c]pyrazol-3(2H)-one] reads 175 °C; that for `Oc1c2c(nn1-c1cc(OCc3cccnc3)ccn1)CSC2` (as salt: Na) [Compound 64, sodium 2-[4-(pyridin-3-ylmethoxy)pyridin-2-yl]-2,6-dihydro-4H-thieno[3,4-c]pyrazol-3-olate], greater than 260 °C; that for `CCN(C(C)(C)C)S(=O)(=O)c1ccc(-n2nc3c(c2O)CSC3)nc1` (as salt: Na) [Compound 32, sodium 2-{5-[tert-butyl(ethyl)sulfamoyl]pyridin-2-yl}-2,6-dihydro-4H-thieno[3,4-c]pyrazol-3-olate], greater than 260 °C. With `Cc1ccc(-n2nc3c(c2[O-])CSC3)nc1.[Na+]` [Compound 31, sodium 2-(5-methylpyridin-2-yl)-2,6-dihydro-4H-thieno[3,4-c]pyrazol-3-olate], the melting point was greater than 220 °C.

Turning to `CN(C)c1ccnc(-n2[nH]c3c(c2=O)CSC3)c1` (as salt: HCl) [Compound 60, 2-[4-(dimethylamino)pyridin-2-yl]-1,2,4,6-tetrahydro-3H-thieno[3,4-c]pyrazol-3-one hydrochloride], the melting point came out at 182 °C. Turning to `CN(Cc1ccccn1)S(=O)(=O)c1ccc(-n2[nH]c3c(c2=O)CSC3)nc1` (as salt: HCl) [Compound 27, N-methyl-6-(3-oxo-4,6-dihydro-1H-thieno[3,4-c]pyrazol-2(3H)-yl)-N-(pyridin-2-ylmethyl)pyridine-3-sulfonamide], the melting point was 198 °C.

With `O=c1c2c([nH]n1-c1ccc(S(=O)(=O)Nc3ccccn3)cn1)CSC2` [Compound 23, 6-(3-oxo-4,6-dihydro-1H-thieno[3,4-c]pyrazol-2(3H)-yl)-N-(pyridin-2-yl)pyridine-3-sulfonamide], the melting point is greater than 260 °C. In the data set on HIF1-alpha, this compound returned an EC50 of 12 µM. The matching figures for `COc1ccc(-n2nc3c(c2[O-])CSC3)nc1.[Na+]` [Compound 34, sodium 2-(5-methoxypyridin-2-yl)-2,6-dihydro-4H-thieno[3,4-c]pyrazol-3-olate]: greater than 220 °C and 10 µM.

For `CC(C)c1ccnc(-n2[nH]c3c(c2=O)CSC3)c1` [Compound 65, 2-[4-(propan-2-yl)pyridin-2-yl]-1,2,4,6-tetrahydro-3H-thieno[3,4-c]pyrazol-3-one], the melting point is 92 °C. Still for that read-out and setting: then `CCc1ccnc(-n2[nH]c3c(c2=O)CSC3)c1` (as salt: Na) [Compound 61, sodium 2-(4-ethylpyridin-2-yl)-2,6-dihydro-4H-thieno[3,4-c]pyrazol-3-olate], with greater than 260 °C. `O=c1c2c([nH]n1-c1ccccn1)CCC2` [Compound 7, 2-(pyridin-2-yl)-1,4,5,6-tetrahydrocyclopenta[c]pyrazol-3(2H)-one] came in with a melting point of 156 °C. For the same compound, in the data set on HIF1-alpha, the EC50 was 6 µM. `O=c1c2c([nH]n1-c1ccc(S(=O)(=O)N(CC(O)CO)C3CCCC3)cn1)CSC2` (stereo not shown) [Compound 53, N-cyclopentyl-N-(2,3-dihydroxypropyl)-6-(3-oxo-4,6-dihydro-1H-thieno[3,4-c]pyrazol-2(3H)-yl)pyridine-3-sulfonamide] had a melting point of 190 °C.

The compound `CN(Cc1ccccn1)S(=O)(=O)c1ccc(-n2[nH]c3c(c2=O)CSC3)nc1` [Compound 27, N-methyl-6-(3-oxo-4,6-dihydro-1H-thieno[3,4-c]pyrazol-2(3H)-yl)-N-(pyridin-2-ylmethyl)pyridine-3-sulfonamide] had an EC50 with HIF1-alpha of 9.5 µM. Turning to `CCN(c1ccccc1)S(=O)(=O)c1ccc(-n2nc3c(c2O)N(Cc2ccccc2)C(=O)CC3)nc1` (as salt: Na) [Compound 35, sodium 4-benzyl-2-{5-[ethyl(phenyl)sulfamoyl]pyridin-2-yl}-5-oxo-4,5,6,7-tetrahydro-2H-pyrazolo[4,3-b]pyridin-3-olate], the melting point was greater than 250 °C. `CCN(c1ccccc1)S(=O)(=O)c1ccc(-n2[nH]c3c(c2=O)CCCCCC3)nc1` [Compound 37, N-ethyl-6-(3-oxo-1,3,4,5,6,7,8,9-octahydro-2H-cycloocta[c]pyrazol-2-yl)-N-phenylpyridine-3-sulfonamide] displayed a melting point of 200 °C. For the same compound, the concentration for a half-maximal effect (EC50) with HIF1-alpha was 2.2 µM. Consider `CN(C(C)(C)C)S(=O)(=O)c1ccc(-n2nc3c(c2O)CSC3)nc1` (as salt: Na) [Compound 36, sodium 2-{5-[tert-butyl(methyl)sulfamoyl]pyridin-2-yl}-2,6-dihydro-4H-thieno[3,4-c]pyrazol-3-olate], for which the melting point is 130 °C.

Turning to `CN(C)c1ccnc(-n2[nH]c3c(c2=O)CSC3)c1` [Compound 60, 2-[4-(dimethylamino)pyridin-2-yl]-1,2,4,6-tetrahydro-3H-thieno[3,4-c]pyrazol-3-one hydrochloride], a half-maximal effect in the data set with HIF1-alpha (EC50) was put at 21 µM. On to `CC(C)(C)COC(=O)c1ccc(-n2[nH]c3c(c2=O)CN(S(C)(=O)=O)CC3)nc1` [Compound 54, 2,2-dimethylpropyl 6-[5-(methylsulfonyl)-3-oxo-1,3,4,5,6,7-hexahydro-2H-pyrazolo[4,3-c]pyridin-2-yl]pyridine-3-carboxylate], for which the melting point was 230 °C. The compound `Cc1ccnc(-n2nc3c(c2[O-])CSC3)c1.[Na+]` [Compound 62, sodium 2-(4-methylpyridin-2-yl)-2,6-dihydro-4H-thieno[3,4-c]pyrazol-3-olate] returned a melting point greater than 250 °C. In the data set on HIF1-alpha, this compound yielded an EC50 of 3.9 µM. `CC(C)(C)NC(=O)c1ccc(-n2nc3c(c2O)CSC3)nc1` [Compound 33, sodium 2-[5-(tert-butylcarbamoyl)pyridin-2-yl]-2,6-dihydro-4H-thieno[3,4-c]pyrazol-3-olate]: the EC50 with HIF1-alpha worked out at 9.4 µM.

By melting point is commonly meant the temperature of the solid-liquid transition. For orientation: EC50 means the concentration needed to bring the measured effect to its halfway point.

(Values after patent US8697731B2, “Derivatives of 2-pyridin-2-yl-pyrazol-3(2H)-one, preparation and therapeutic use thereof” (Sanofi, priority 2008, dated 2014).)
